Measurements reported in patent US20060052369A1, “Compositions and methods relating to novel compounds and targets thereof” (The Regents of the University of Michigan, priority 2004, published 2006).
Where two headings read alike, the source gives them in different places.

How the values were obtained:
[1] = target: T1, ATPase of sub-mitochondrial particles (mitochondrial F1Fo-ATPase) (Bos taurus, UniProt P13621); test: NADH-coupled ATP hydrolysis kinetics assay with sub-mitochondrial particles; assay type: biochemical, bovine; settings: for mechanism of inhibition: ATP hydrolysis
T1 construct: from tissue; host or cells: sub-mitochondrial particles (SMPs)
Description: The mechanism of inhibition for ATP hydrolysis induced by Bz-423 and derivatives of Bz-423 was assayed using an NADH-coupled assay. The ATP hydrolytic activity of the sub-mitochondrial particles (hereinafter SMPs) was measured by coupling the production of ADP to the oxidation of NADH via the pyruvate kinase and lactate dehydrogenase reaction. Briefly, ATP hydrolysis SMPs (0.8 mg; 7.14 μg/well) were added to hydrolysis buffer (100 mM Tris-HCl, pH 8.0 at 25° C., 4 mM MgCl2, […], 0.2 mM EDTA) and vortexed. 125 μL of this suspension was added to each well of a 96-well plate containing 50× drug or DMSO vehicle control (1% DMSO, final). The 96-well plate was then placed at 30° C. in a Molecular Devices Versamax tunable microplate reader and allowed to incubate for 5 min. During this 5 min, a substrate-coupling mixture was prepared (containing X mM ATP, 0.2 mM NADH, 1 mM phosphoenolpyruvate (PEP), 2 U/mL pyruvate kinase (PK), and 2 U/mL lactate dehydrogenase (LDH) in hydrolysis buffer). The rate of hydrolysis was assayed over a range of ATP concentrations (0.1-4.0 mM) at each [Bz]. 125 μL of the substrate-coupling mixture was added to each well, and the rate of NADH oxidation was monitored for 10 min at 340 nm, 30° C. The measured decrease in absorbance over time (in OD/min) was converted to μmol ATP hydrolyzed/min/mg SMP (ε=6220). The velocity data was plotted versus [ATP] for each concentration of [Bz] […] To obtain Ki values and confirm that an uncompetitive model of inhibition was the best fit for the data, three-dimensional fits of the velocity, [ATP], and [Bz] were performed to solve for Vmax, Km, Ki, and Ki* [where Ki indicates Bz binding to the ATPase with the third catalytic site empty (mixed-type inhibition only), and Ki* indicates binding when all three sites have substrate bound (uncompetitive and mixed-type inhibition)]. The following equations were used: Competitive Inhibition: Vo=Vmax[S]/((1+[I]/Ki)Km+[S]) Uncompetitive Inhibition: Vo=Vmax[S]/((1+[I]/Ki*)[S]+Km) Mixed or Noncompetitive Inhibition: Vo=Vmax[S]/((1+[I]/Ki)Km+(1+[I]Ki*)[S])
The results for the o-tert-Butyl derivative of Bz-423 are shown in Table 1 and confirm that this derivative binds the ATPase with an uncompetitive binding mechanism, similar to Bz-423.

[2] = test system: rodents; settings: two daily doses; cited from earlier work
[3] = target: F1Fo-ATPase (Homo sapiens, UniProt P05496); settings: cited from earlier work
[4] = Ki*, Uncompetitive Inhibition model fit, binding when all three sites have substrate bound
[5] = Ki, Competitive Inhibition model fit

Compound	mechanism of inhibition [1]	Ki [1, 4] [µM]	Ki [1, 5] [µM]	LD50 [2] [mg/kg]	IC50 [3] [µM]	Ki ([1]; Non-competitive Inhibition model fit, binding when all three sites have substrate bound, read-out: Ki*) [µM]	effect on Km ([1]; secondary plots of [Bz] versus Km)	effect on Vmax ([1]; secondary plots of [Bz] versus Vmax)
CN1C(=O)C(Cc2ccc3ccccc3c2)N=C(c2ccc(O)cc2)c2cc(Cl)ccc21 (centres unmarked) [Bz-423]	uncompetitive	19 ± 5.8	13.32 ± 0.1	–	–	–	–	–
CC[C@H]1/C=C/C=C/C[C@@H](C)[C@H](O)[C@@](C)(O)C(=O)[C@@H](C)[C@H](O)[C@@H](C)C(=O)[C@@H](C)[C@H](O)[C@@H](C)/C=C/C(=O)O[C@@H]2[C@H](C)[C@H](CC1)O[C@]1(CC[C@H](C)[C@H](C[C@@H](C)O)O1)[C@H]2C [oligomycin]	–	–	–	0.5	0.01	–	–	–
CN1C(=O)C(Cc2ccc(OC(C)(C)C)cc2)N=C(c2ccc(O)cc2)c2cc(Cl)ccc21 (centres unmarked) [o-tert-Butyl]	uncompetitive	12.7 ± 1.1	9.35 ± 2.4	–	–	12.7 ± 1.1	decreased	decreased
